Where “and” joins values, the source holds several entries; their conditions need not be identical. Equal entries are not always repeated. Where two headings read alike, the source gives them in different places.
Key:
[1] = background statement; cited from earlier work
Cox-2 = biological target: T1, Cox-2 (Homo sapiens, UniProt P35354); assay: inhibiting activity to COX-2 (TMPD colorimetric, 590 nm); format: biochemical; settings: tested at 300, 100, 30, 10 μmol/L (positive control 100, 30, 10, 3)
T1 construct: purchased Cayman, USA
T1 sequence (P35354 18-604): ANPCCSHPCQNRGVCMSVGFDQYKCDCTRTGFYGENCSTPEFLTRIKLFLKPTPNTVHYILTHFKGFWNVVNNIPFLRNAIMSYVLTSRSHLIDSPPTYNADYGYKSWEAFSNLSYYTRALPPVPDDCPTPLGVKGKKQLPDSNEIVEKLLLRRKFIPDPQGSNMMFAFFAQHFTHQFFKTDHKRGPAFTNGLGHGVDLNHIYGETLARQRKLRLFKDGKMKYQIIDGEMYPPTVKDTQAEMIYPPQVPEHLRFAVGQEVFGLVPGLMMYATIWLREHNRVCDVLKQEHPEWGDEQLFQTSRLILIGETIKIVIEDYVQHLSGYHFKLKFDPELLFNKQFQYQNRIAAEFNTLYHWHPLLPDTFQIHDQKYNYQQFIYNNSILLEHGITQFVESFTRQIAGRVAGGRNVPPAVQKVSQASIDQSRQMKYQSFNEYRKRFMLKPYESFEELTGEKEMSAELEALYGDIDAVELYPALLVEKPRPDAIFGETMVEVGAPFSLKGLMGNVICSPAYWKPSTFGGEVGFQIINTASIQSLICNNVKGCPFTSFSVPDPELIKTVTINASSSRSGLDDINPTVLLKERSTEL
Method: 2.5.1 The Inhibiting Activity to COX-1/COX-2
(1) In 220 ul of reaction system, mixed buffer (1×), heme, COX-1/COX-2, and the compound to be tested, are sequentially added, and are incubated for 5 minutes at 25° C.;
(2) Adding chromogenic substrate (TMPD) and arachidonic acid;
(3) Carefully shaking the plate for several seconds, then incubating for 15 minutes at 25° C.;
(4) Detecting absorption value at 590 nm.
Fitting data of concentration (μmol/L) and corresponding inhibition rate (%) via Microsoft EXCEL software to get a trendline, so as to obtain the half-effective inhibiting concentration (IC50) of each tested enzyme.

in vivo = settings: mouse, in vivo, ip
Source text: (§1) Each tested group includes 5 dose-groups during the tests as follows:
(§2) Intraperitoneal injection (ip)
(§3) (3) Observed periods: 14 days.

ICR mice = assay: in vivo; settings: LD50 ip compared with S
Source text: as §1, §2, §3

[2] = tested on: hot plate pain threshold of mice; assay: hot plate pain threshold of mice; format: in vivo; settings: 40 mg/kg ip, 0 h (base threshold before administration)
[3] = pharmacokinetic study in rats of ig administration; format: in vivo
[4] = ig 50 mg/kg, individual animals A-F, listed as R-type isomer

## CC(C(=O)O)c1ccc2c(c1)CC(=O)c1ccccc1S2 (racemic) [RS, 10,11-dihydro-alpha-methyl-10-oxo-dibenzo[b,f]tiazem-2-acetic acid, reference compound]
[1]
  abirritation, times more than Indomethacin, Diclofenac Sodium, Ketoprofen, mefenamic acid: 3-28 times
Cox-2
  IC50: 7.6 µM
In vivo
  LD50 at 14 days: 252 ± 18.9 mg/kg
ICR mice
  Com. Vs. S (multiple): 1.3 multiple

## C[C@@H](C(=O)O)c1ccc2c(c1)CC(=O)c1ccccc1S2 [R, R-10,11-dihydro-alpha-methyl-10-oxo-dibenzo[b,f]tiazem-2-acetic acid]
Cox-2
  IC50: 48.6 µM
[2]
  pain threshold(s) 0 h: 15.2 ± 15.1 s
[3]; ig
  transformation between R-isomer and S-isomer during monitoring of blood drug level: No transformation between R-isomer and S-isomer is detected
[3]; [4]
  AUC(0-48): 723.9 µg·h/mL and 239.0 µg·h/mL and 330.6 µg·h/mL and 814.3 µg·h/mL and 324.2 µg·h/mL and 1336.0 µg·h/mL
  AUG(0-∞): 772.8 mg/L*h and 337.7 mg/L*h and 818.7 mg/L*h and 325.6 mg/L*h and 1374.1 mg/L*h
  CLz/F: 0.1 L/h/kg (3×) and 0.2 L/h/kg (2×) and 0.0 L/h/kg
  Cmax: 260.8 µg/mL and 98.9 µg/mL and 67.8 µg/mL and 223.1 µg/mL and 131.5 µg/mL and 184.2 µg/mL
  MRT(0-48): 7.4 h and 2.2 h and 9.1 h and 5.4 h and 5.0 h and 10.3 h
  Tmax: 1.0 h (2×) and 0.5 h (2×) and 0.3 h (2×)
  t1/2z: 10.0 h and 2.2 h and 9.8 h and 7.8 h and 4.9 h and 9.6 h
[3]; ig 50 mg/kg, mean of A-F
  AUG(0-∞) Mean: 647.5 mg/L*h
  CLz/F Mean: 1.7 mL/min/kg
  t1/2z Mean: 7.4 h
[3]; rat, plasma, po, 50 mg/kg, ig 50 mg/kg, mean of A-F, read-out: AUC(0-48) Mean
  AUC(0-t): 628 µg·h/mL
[3]; rat, plasma, po, 50 mg/kg, ig 50 mg/kg, mean of A-F, read-out: Cmax Mean
  Cmax: 161 µg/mL
[3]; rat, plasma, po, 50 mg/kg, ig 50 mg/kg, mean of A-F, read-out: MRT(0-48) Mean
  MRT last: 6.6 h
[3]; rat, plasma, po, 50 mg/kg, ig 50 mg/kg, mean of A-F, read-out: Tmax Mean
  Tmax: 0.6 h
[3]; rat, plasma, po, 50 mg/kg, ig 50 mg/kg, mean of A-F, read-out: Vz/F Mean
  Vd/F: 1 L/kg
In vivo; ICR
  LD50 at 14 days: 744 ± 69.8 mg/kg
ICR mice
  Com. Vs. S (multiple): 3.7 multiple

## C[C@H](C(=O)O)c1ccc2c(c1)CC(=O)c1ccccc1S2 [S, S-10,11-dihydro-alpha-methyl-10-oxo-dibenzo[b,f]tiazem-2-acetic acid]
Cox-2
  IC50: 21.6 µM
In vivo; ICR
  LD50 at 14 days: 201 ± 14.3 mg/kg
ICR mice
  Com. Vs. S (multiple): 1.0 multiple
